# Article PMC4144712 (Biochemistry, 2014)
# Key:
# CCR3 = test: Inhibition of FITC-DV1 binding in CCR3-expressing cell line; conditions: data not shown
# CCR5 = test: Inhibition of FITC-DV1 binding in CCR5-expressing cell line; conditions: data not shown
# CXCR4 = CXCR4 (Homo sapiens, UniProt P61073); test: CXCR4-FITC-DV1 competitive binding assay; conditions: CHO-CXCR4 cells; 800 nM FITC-DV1
# Chain of CXCR4 (P61073 whole entry): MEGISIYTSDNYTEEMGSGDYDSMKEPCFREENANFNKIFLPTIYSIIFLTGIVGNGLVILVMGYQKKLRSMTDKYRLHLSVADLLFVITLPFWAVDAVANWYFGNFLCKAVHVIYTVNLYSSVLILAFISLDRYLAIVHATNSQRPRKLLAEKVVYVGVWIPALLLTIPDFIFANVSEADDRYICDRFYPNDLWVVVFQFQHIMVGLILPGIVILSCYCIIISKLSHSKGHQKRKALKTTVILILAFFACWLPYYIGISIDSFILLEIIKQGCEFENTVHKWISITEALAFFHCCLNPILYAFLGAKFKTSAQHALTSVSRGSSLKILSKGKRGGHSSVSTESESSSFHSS
Compound,inhibition of the binding of FITC-DV1 in CCR3-expressing cell line (CCR3),inhibition of the binding of FITC-DV1 in CCR5-expressing cell line (CCR5),inhibition of the binding of FITC-DV1 to CXCR4 (in words) (CXCR4)
RANTES: a common ligand of CCR5 and CCR3,"Neither ubiquitin, a ligand of CXCR4, nor RANTES (a common ligand of CCR5 and CCR3) inhibited the binding of FITC-DV1","Neither ubiquitin, a ligand of CXCR4, nor RANTES (a common ligand of CCR5 and CCR3) inhibited the binding of FITC-DV1",–
c1cc(CN2CCCNCCNCCCNCC2)ccc1CN1CCCNCCNCCCNCC1 [AMD3100],–,–,inhibited the binding of FITC-DV1 to CXCR4
